Experimental data: ChEMBL document CHEMBL3885861, “Open TG-GATES”

Species on record: Rattus norvegicus
Experiment: Open TG-GATES - Regimen: Single
Type: toxicity, organism-based, Sprague-Dawley
Set-up: regimen Single, gender Male, age 6 weeks
Conditions: in vivo, po, route gavage; for Bas / Eos / Fbg / Hb / Lym / MCH / MCHC / MCV / Mono / Neu / RBC / Ret / WBC / APTT: tissue Blood; for KIDNEY_L / KIDNEY_R / KIDNEY_TOTAL: tissue Kidney; for LIVER: tissue Liver; for ALP / ALT / AST / CRE / Ca / Cl / DBIL / GLC / IP / K / LDH / Na / PL / RALB / TBIL / TC / TG / TP / gamma-GTP: tissue Plasma
[1] = 75 mg/kg, 3 h, dose level Middle
[2] = 75 mg/kg, 6 h, dose level Middle
[3] = 75 mg/kg, 9 h, dose level Middle
[4] = 75 mg/kg, 24 h, dose level Middle
[5] = 250 mg/kg, 3 h, dose level High
[6] = 250 mg/kg, 6 h, dose level High
[7] = 250 mg/kg, 9 h, dose level High
[8] = 250 mg/kg, 24 h, dose level High

SMILES: O=C1CN(/N=C/c2ccc(-c3ccc([N+](=O)[O-])cc3)o2)C(O)=N1 [DANTROLENE]
- Bas [1]: 0%
- Eos [1]: 1%
- Fbg [1]: 217.6 mg/dL
- Hb [1]: 14.2 g/dL
- Lym [1]: 70.4%
- MCH [1]: 22.7 pg
- MCHC [1]: 34.1%
- MCV [1]: 66.7 fL
- Mono [1]: 8%
- Neu [1]: 20.6%
- RBC [1]: 623.6 x10_4/ul
- Ret [1]: 10.8%
- WBC [1]: 82.6 x10_2/uL
- KIDNEY_L [1]: 0.9 g
- KIDNEY_R [1]: 1 g
- KIDNEY_TOTAL [1]: 1.9 g
- LIVER [1]: 9.5 g
- ALP [1]: 747.2 IU/L
- ALT [1]: 32.4 IU/L
- AST [1]: 60.2 IU/L
- CRE [1]: 0.5 mg/dL
- Ca [1]: 10.3 mg/dL
- Cl [1]: 101.4 meq/L
- DBIL [1]: 0.06 mg/dL
- GLC [1]: 213.4 mg/dL
- IP [1]: 11.1 mg/dL
- K [1]: 4.7 meq/L
- LDH [1]: 105.8 IU/L
- Na [1]: 138 meq/L
- PL [1]: 148.2 mg/dL
- RALB [1]: 3.9 g/dL
- TBIL [1]: 0.3 mg/dL
- TC [1]: 85.4 mg/dL
- TG [1]: 41.4 mg/dL
- TP [1]: 5.7 g/dL
- gamma-GTP [1]: 1.8 IU/L
- TERMINAL_BW [2]: 191.2 g
- APTT [2]: 17 s
- Bas [2]: 0%
- Eos [2]: 1%
- Fbg [2]: 220.6 mg/dL
- Hb [2]: 14.6 g/dL
- Lym [2]: 73.2%
- MCH [2]: 22.4 pg
- MCHC [2]: 34.3%
- MCV [2]: 65.2 fL
- Mono [2]: 8.6%
- Neu [2]: 17.2%
- RBC [2]: 650.4 x10_4/ul
- Ret [2]: 12.7%
- WBC [2]: 82.9 x10_2/uL
- KIDNEY_L [2]: 0.9 g
- KIDNEY_R [2]: 0.9 g
- KIDNEY_TOTAL [2]: 1.9 g
- LIVER [2]: 9 g
- ALP [2]: 749.6 IU/L
- ALT [2]: 34 IU/L
- AST [2]: 64.2 IU/L
- CRE [2]: 0.5 mg/dL
- Ca [2]: 10.3 mg/dL
- Cl [2]: 102.8 meq/L
- DBIL [2]: 0.06 mg/dL
- GLC [2]: 211.4 mg/dL
- IP [2]: 9.6 mg/dL
- K [2]: 4.6 meq/L
- LDH [2]: 102 IU/L
- Na [2]: 138.8 meq/L
- PL [2]: 141.8 mg/dL
- RALB [2]: 3.8 g/dL
- TBIL [2]: 0.3 mg/dL
- TC [2]: 80.4 mg/dL
- TG [2]: 30.4 mg/dL
- TP [2]: 5.6 g/dL
- gamma-GTP [2]: 1.6 IU/L
- TERMINAL_BW [3]: 191.7 g
- APTT [3]: 16.9 s
- Bas [3]: 0%
- Eos [3]: 1%
- Fbg [3]: 217.8 mg/dL
- Hb [3]: 14.3 g/dL
- Lym [3]: 78.2%
- MCH [3]: 21.6 pg
- MCHC [3]: 32.9%
- MCV [3]: 65.6 fL
- Mono [3]: 7.4%
- RBC [3]: 663.8 x10_4/ul
- Ret [3]: 9.8%
- WBC [3]: 74.6 x10_2/uL
- KIDNEY_L [3]: 0.9 g
- KIDNEY_R [3]: 0.9 g
- KIDNEY_TOTAL [3]: 1.8 g
- LIVER [3]: 8.2 g
- ALP [3]: 710.6 IU/L
- ALT [3]: 23.2 IU/L
- AST [3]: 53 IU/L
- CRE [3]: 0.5 mg/dL
- Ca [3]: 10.4 mg/dL
- Cl [3]: 105.2 meq/L
- DBIL [3]: 0.054 mg/dL
- GLC [3]: 205.8 mg/dL
- IP [3]: 9.5 mg/dL
- K [3]: 5.2 meq/L
- LDH [3]: 103.2 IU/L
- Na [3]: 138.2 meq/L
- PL [3]: 148 mg/dL
- RALB [3]: 3.8 g/dL
- TBIL [3]: 0.4 mg/dL
- TC [3]: 87.4 mg/dL
- TG [3]: 26.4 mg/dL
- TP [3]: 5.5 g/dL
- gamma-GTP [3]: 1.6 IU/L
- TERMINAL_BW [4]: 190.1 g
- APTT [4]: 16.9 s
- Bas [4]: 0%
- Eos [4]: 0.8%
- Fbg [4]: 202.2 mg/dL
- Hb [4]: 13.8 g/dL
- Lym [4]: 86.2%
- MCH [4]: 21.9 pg
- MCHC [4]: 33.6%
- MCV [4]: 65.3 fL
- Mono [4]: 7.2%
- Neu [4]: 6.2%
- RBC [4]: 631 x10_4/ul
- Ret [4]: 11.5%
- WBC [4]: 86.1 x10_2/uL
- KIDNEY_L [4]: 0.9 g
- KIDNEY_R [4]: 0.9 g
- KIDNEY_TOTAL [4]: 1.9 g
- LIVER [4]: 9 g
- ALP [4]: 1061.6 IU/L
- ALT [4]: 32.8 IU/L
- AST [4]: 56.2 IU/L
- CRE [4]: 0.5 mg/dL
- Ca [4]: 10.9 mg/dL
- Cl [4]: 105 meq/L
- DBIL [4]: 0.018 mg/dL
- GLC [4]: 189 mg/dL
- IP [4]: 7.7 mg/dL
- K [4]: 4.3 meq/L
- LDH [4]: 104.6 IU/L
- Na [4]: 141.4 meq/L
- PL [4]: 147.8 mg/dL
- RALB [4]: 3.9 g/dL
- TBIL [4]: 0.4 mg/dL
- TC [4]: 83.6 mg/dL
- TG [4]: 73.2 mg/dL
- TP [4]: 5.7 g/dL
- gamma-GTP [4]: 1 IU/L
- TERMINAL_BW [5]: 193.5 g
- APTT [5]: 16.6 s
- Bas [5]: 0%
- Eos [5]: 1.4%
- Fbg [5]: 218.2 mg/dL
- Hb [5]: 14.5 g/dL
- Lym [5]: 76.6%
- MCH [5]: 22 pg
- MCHC [5]: 34.2%
- MCV [5]: 64.3 fL
- Mono [5]: 6.8%
- Neu [5]: 15%
- RBC [5]: 658 x10_4/ul
- Ret [5]: 11.7%
- WBC [5]: 67.2 x10_2/uL
- KIDNEY_L [5]: 0.9 g
- KIDNEY_R [5]: 0.9 g
- KIDNEY_TOTAL [5]: 1.9 g
- LIVER [5]: 9.3 g
- ALP [5]: 867.8 IU/L
- ALT [5]: 35.6 IU/L
- AST [5]: 68.8 IU/L
- CRE [5]: 0.5 mg/dL
- Ca [5]: 10.4 mg/dL
- Cl [5]: 100.6 meq/L
- DBIL [5]: 0.056 mg/dL
- GLC [5]: 223.4 mg/dL
- IP [5]: 10.3 mg/dL
- K [5]: 4.5 meq/L
- LDH [5]: 100.4 IU/L
- Na [5]: 138.4 meq/L
- PL [5]: 142 mg/dL
- RALB [5]: 3.9 g/dL
- TBIL [5]: 0.3 mg/dL
- TC [5]: 81 mg/dL
- TG [5]: 41.8 mg/dL
- TP [5]: 5.7 g/dL
- gamma-GTP [5]: 2.2 IU/L
- TERMINAL_BW [6]: 189.5 g
- APTT [6]: 17.8 s
- Bas [6]: 0%
- Eos [6]: 0.8%
- Fbg [6]: 212.2 mg/dL
- Hb [6]: 14.7 g/dL
- Lym [6]: 68.4%
- MCH [6]: 22.4 pg
- MCHC [6]: 34.4%
- MCV [6]: 65.2 fL
- Mono [6]: 6.2%
- Neu [6]: 24.6%
- RBC [6]: 656.8 x10_4/ul
- Ret [6]: 12.9%
- WBC [6]: 66.9 x10_2/uL
- KIDNEY_L [6]: 0.9 g
- KIDNEY_R [6]: 0.9 g
- KIDNEY_TOTAL [6]: 1.8 g
- LIVER [6]: 8.3 g
- ALP [6]: 725.6 IU/L
- ALT [6]: 29.6 IU/L
- AST [6]: 58.6 IU/L
- CRE [6]: 0.5 mg/dL
- Ca [6]: 10.3 mg/dL
- Cl [6]: 102.4 meq/L
- DBIL [6]: 0.086 mg/dL
- GLC [6]: 219.6 mg/dL
- IP [6]: 9 mg/dL
- K [6]: 4.4 meq/L
- LDH [6]: 110.6 IU/L
- Na [6]: 137.6 meq/L
- PL [6]: 133.4 mg/dL
- RALB [6]: 3.9 g/dL
- TBIL [6]: 0.3 mg/dL
- TC [6]: 79.2 mg/dL
- TG [6]: 19.2 mg/dL
- TP [6]: 5.6 g/dL
- gamma-GTP [6]: 1.2 IU/L
- TERMINAL_BW [7]: 185.8 g
- APTT [7]: 19.1 s
- Bas [7]: 0%
- Eos [7]: 0.2%
- Fbg [7]: 216.8 mg/dL
- Hb [7]: 14.5 g/dL
- Lym [7]: 77.8%
- MCH [7]: 21.6 pg
- MCHC [7]: 32.9%
- MCV [7]: 65.6 fL
- Mono [7]: 5.8%
- Neu [7]: 15.8%
- RBC [7]: 669.4 x10_4/ul
- Ret [7]: 12.3%
- WBC [7]: 55.5 x10_2/uL
- KIDNEY_L [7]: 0.9 g
- KIDNEY_R [7]: 0.9 g
- KIDNEY_TOTAL [7]: 1.8 g
- LIVER [7]: 8 g
- ALP [7]: 664.6 IU/L
- ALT [7]: 21.4 IU/L
- AST [7]: 50.4 IU/L
- CRE [7]: 0.6 mg/dL
- Ca [7]: 10.5 mg/dL
- Cl [7]: 103.6 meq/L
- DBIL [7]: 0.064 mg/dL
- GLC [7]: 212.2 mg/dL
- IP [7]: 8.9 mg/dL
- K [7]: 4.9 meq/L
- LDH [7]: 89.8 IU/L
- Na [7]: 136.8 meq/L
- PL [7]: 144.2 mg/dL
- RALB [7]: 3.8 g/dL
- TBIL [7]: 0.4 mg/dL
- TC [7]: 90.2 mg/dL
- TG [7]: 17.2 mg/dL
- TP [7]: 5.7 g/dL
- gamma-GTP [7]: 1.4 IU/L
- TERMINAL_BW [8]: 185 g
- APTT [8]: 17.5 s
- Bas [8]: 0%
- Eos [8]: 0.8%
- Fbg [8]: 207 mg/dL
- Hb [8]: 14.7 g/dL
- Lym [8]: 87.6%
- MCH [8]: 21.8 pg
- MCHC [8]: 33.4%
- MCV [8]: 65.3 fL
- Mono [8]: 5.8%
- Neu [8]: 5.8%
- RBC [8]: 675 x10_4/ul
- Ret [8]: 13%
- WBC [8]: 72.5 x10_2/uL
- KIDNEY_L [8]: 0.9 g
- KIDNEY_R [8]: 0.9 g
- KIDNEY_TOTAL [8]: 1.9 g
- LIVER [8]: 8.6 g
- ALP [8]: 722.6 IU/L
- ALT [8]: 24.6 IU/L
- AST [8]: 46.2 IU/L
- CRE [8]: 0.5 mg/dL
- Ca [8]: 11.1 mg/dL
- Cl [8]: 103.4 meq/L
- DBIL [8]: 0.022 mg/dL
- GLC [8]: 191.2 mg/dL
- IP [8]: 9.1 mg/dL
- K [8]: 4.8 meq/L
- LDH [8]: 102.8 IU/L
- Na [8]: 140.6 meq/L
- PL [8]: 136 mg/dL
- RALB [8]: 4 g/dL
- TBIL [8]: 0.3 mg/dL
- TC [8]: 79.6 mg/dL
- TG [8]: 21.8 mg/dL
- TP [8]: 5.7 g/dL
- gamma-GTP [8]: 1.6 IU/L
